These molecules were tested against T1, BK potassium channel, cloned hSlo (α-hSlo and β-bSlo) in CHO cells (Homo sapiens, UniProt Q12791) (assay: Em-Assay: membrane potential with voltage sensitive dye DiBAC(4)3, fluorescence plate reader). Conditions: compound 50 μM; NS004 25 or 50 μM; hSlo transfected CHO cells; change in DiBAC(4)3 fluorescence intensity.
T1 construct: expressed in transfected cells; host or cells: CHO cells, permanently transfected
T1 sequence (Q12791 1-1178 isoform Q12791-5): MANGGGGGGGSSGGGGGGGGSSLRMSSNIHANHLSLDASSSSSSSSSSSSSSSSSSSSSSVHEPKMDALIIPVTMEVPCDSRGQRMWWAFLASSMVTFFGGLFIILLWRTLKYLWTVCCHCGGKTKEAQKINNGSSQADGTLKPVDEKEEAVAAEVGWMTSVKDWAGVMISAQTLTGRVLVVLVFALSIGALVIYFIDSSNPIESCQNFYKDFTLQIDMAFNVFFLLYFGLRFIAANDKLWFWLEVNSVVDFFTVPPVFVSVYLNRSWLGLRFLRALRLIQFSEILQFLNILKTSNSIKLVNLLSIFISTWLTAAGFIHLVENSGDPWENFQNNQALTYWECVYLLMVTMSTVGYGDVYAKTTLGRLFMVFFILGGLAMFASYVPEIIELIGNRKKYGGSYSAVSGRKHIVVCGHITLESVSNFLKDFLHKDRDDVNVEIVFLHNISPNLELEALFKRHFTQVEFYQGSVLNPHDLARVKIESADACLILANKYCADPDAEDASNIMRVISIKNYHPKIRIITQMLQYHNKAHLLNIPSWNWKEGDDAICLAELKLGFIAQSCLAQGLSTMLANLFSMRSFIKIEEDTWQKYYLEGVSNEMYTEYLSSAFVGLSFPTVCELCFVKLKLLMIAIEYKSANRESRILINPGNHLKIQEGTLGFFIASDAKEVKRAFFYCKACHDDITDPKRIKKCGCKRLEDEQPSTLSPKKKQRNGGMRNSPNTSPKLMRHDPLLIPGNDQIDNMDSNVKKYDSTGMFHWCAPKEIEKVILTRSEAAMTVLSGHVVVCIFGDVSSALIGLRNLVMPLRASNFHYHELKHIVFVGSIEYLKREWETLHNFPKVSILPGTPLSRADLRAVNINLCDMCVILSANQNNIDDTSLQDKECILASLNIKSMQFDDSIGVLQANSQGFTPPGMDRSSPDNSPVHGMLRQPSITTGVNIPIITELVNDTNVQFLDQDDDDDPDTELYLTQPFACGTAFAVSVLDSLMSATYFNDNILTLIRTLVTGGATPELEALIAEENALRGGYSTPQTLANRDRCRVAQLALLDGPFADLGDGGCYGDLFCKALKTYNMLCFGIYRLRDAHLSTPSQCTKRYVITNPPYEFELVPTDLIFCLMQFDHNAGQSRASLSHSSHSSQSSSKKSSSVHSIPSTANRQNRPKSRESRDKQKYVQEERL
T1 sequence (Q28067 2-191 partner limits assumed): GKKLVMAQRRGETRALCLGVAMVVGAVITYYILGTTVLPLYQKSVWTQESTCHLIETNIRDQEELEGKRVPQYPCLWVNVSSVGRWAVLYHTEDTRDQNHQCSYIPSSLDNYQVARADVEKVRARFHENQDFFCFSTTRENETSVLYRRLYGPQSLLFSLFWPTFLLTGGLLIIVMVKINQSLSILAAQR
Type: cell-based
Source text: The large conductance, voltage-dependent and Ca^2+-activated potassium channel BK is a potassium selective ion channel and belongs to the subfamily of KCa channels. Four BK alpha-subunits form a functional channel that can be regulated by intracellular Ca^2+ concentration, membrane voltage, and other mechanisms like phosphorylation states or beta subunits. To test the biological activity of the compounds, we applied two different techniques, a fluorescence based assay using a voltage sensitive dye (Em-Assay) as well as exploiting electrophysiological methods.
CHO cells permanently transfected with cloned hSlo (α-hSlo and β-bSlo), yielding typical BK potassium currents (Zhou et al., Pflügers Arch., 436: 725-734 (1998), were used for the evaluation of compound activity. Activation or inhibition of BK channels in these cells leads to a change of the electrochemical gradient causing a hyperpolarized or depolarised membrane potential, respectively.
To determine changes in the membrane potential of the cells we used the voltage sensitive dye DiBAC(4)3 (Molecular Probes) in a kinetic assay system using a fluorescent plate reader (Manning and Sontheimer, J. Neurosci, Meth., 91: 73-81 (1999). The anionic bis-oxonol DiBAC(4)3 is a voltage sensitive dye which partitions from the extracellular environment into the cell where it reversibly binds to intracellular proteins, a kinetic process depending on the membrane potential of the cell. At depolarised potentials (i.e. at a reduced K^+ efflux due to blocked K^+ channels) the dye accumulates in the cell leading to an increased fluorescence intensity, due to its increased fluorescence if bound to cellular proteins. At hyperpolarized potentials (i.e. at an increased K^+ efflux due to the opening of K^+ channels), the dye partitions out of the cell causing a decreased fluorescence intensity.
hSlo transfected CHO cells where maintained in DMEM supplemented with 10% FCS, 250 μg/ml Geneticin, 100 μg/ml Hygromycin, 1×HT-Supplement, and 1×Non-essential Amino Acids and cultured in a humidified CO2 incubator. After trypsination, cells where plated with a density of 5×10^4 cells per well on a clear 96-well plate and incubated for 24 h. Cells where washed once with PBS, once with PBS containing 20 mM HEPES (adjusted to pH 7.4 with NaOH) and 2 μM DIBAC(4)3 (DPBS-DiBAC solution). 180 μl of the dPBS-DiBAC solution was then added to the cells and the plate incubated for 30-60 min at 37° C. During this time the dye could partition into the cells and reach a certain steady-state distribution, depending on the resting membrane potential. Test and reference compounds were stored as DMSO stock solutions and diluted in dPBS-DiBAC solution to the desired concentration.
Fluorescence intensity (Ex.: 485 nm/Em.: 520 nm) of each well was detected in the plate reader (Fluostar, BMG) every 60 seconds. After recording the baseline fluorescence for 7 minutes, 20 μl test—and reference compounds were added and the fluorescence intensity was detected for additional 15 minutes. Background was subtracted, data values were normalized and expressed as a change in fluorescence intensity against time. The change in fluorescence intensity caused by the test compounds was evaluated, compared to the effect of the reference compound NS004, and the ratio was determined (see Table I).
With `Clc1ccccc1CNc1cccc(NCc2ccccc2Cl)c1` [Compound 32] the “Em effect: ratio of the compound effect compared to the maximal effect of NS004” value (shortened to “Em effect: ratio of the compound effect”) was “+ (0-1 = +)”.
`COc1cccc(CNc2cccc(NCc3cccc(OC)c3)c2)c1` [Compound 33] was tested, and the “Em effect: ratio of the compound effect” value was “+ (0-1 = +)”.
In the case of `Fc1cccc(F)c1CNc1cccc(NCc2c(F)cccc2F)c1` [Compound 34, N,N′-bis-(2,6-difluorobenzyl)-benzene-1,3-diamine], the “Em effect: ratio of the compound effect” value was “+ (0-1 = +)”.
For `CC(C)(C)c1ccc(CNc2cccc(NCc3ccc(C(C)(C)C)cc3)c2)cc1` [Compound 36, N,N′-bis-(4-tert-butylbenzyl)-benzene-1,3-diamine], the “Em effect: ratio of the compound effect” value was “++ (>1-1.5 = ++)”.
In the case of `Fc1ccc(CNc2cccc(NCc3ccc(F)cc3Cl)c2)c(Cl)c1` [Compound 37, N,N′-bis-(2-chloro-4-fluorobenzyl)-benzene-1,3-diamine], the “Em effect: ratio of the compound effect” value was “++ (>1-1.5 = ++)”.
In the case of `FC(F)(F)c1ccccc1CNc1cccc(NCc2ccccc2C(F)(F)F)c1` [Compound 39], the “Em effect: ratio of the compound effect” value was “++ (>1-1.5 = ++)”.
`CC(C)(C)c1ccc(CNc2cccc(NCc3csc4ccc(Cl)cc34)c2)cc1` [Compound 40] was tested, and the “Em effect: ratio of the compound effect” value was “+ (0-1 = +)”.
`CC(C)(C)c1ccc(CNc2cccc(NCc3ccc(-c4csnn4)cc3)c2)cc1` [Compound 41] was tested, and the “Em effect: ratio of the compound effect” value was “+ (0-1 = +)”.
With `CC(C)(C)c1ccc(CNc2cccc(NCc3cccc(Cl)c3)c2)cc1` [Compound 42, N-(4tert-butylbenzyl)-N′-(3-chloro-benzyl)-benzene-1,3-diamine] the “Em effect: ratio of the compound effect” value was “+ (0-1 = +)”.
With `CC(C)(C)c1ccc(CNc2cccc(NCc3ccc(S(C)(=O)=O)cc3)c2)cc1` [Compound 43, N-(4-tert-butylbenzyl)-N′-(4-methanesulfonylbenzyl)-benzene-1,3-diamine] the “Em effect: ratio of the compound effect” value was “+ (0-1 = +)”.
With `Fc1cccc(CNc2cccc(NCc3ccc(-c4csnn4)cc3)c2)c1` [Compound 44, N-(3-fluoro-benzyl)-N′-(4-[1,2,3]thiadiazol-4-yl-benzyl)-benzene-1,3-diamine] the “Em effect: ratio of the compound effect” value was “+ (0-1 = +)”.
With `CS(=O)(=O)c1ccc(CNc2cccc(NCc3cccc(F)c3)c2)cc1` [Compound 45] the “Em effect: ratio of the compound effect” value was “+ (0-1 = +)”.
For `O=[N+]([O-])c1ccc(CNc2cccc(NCc3ccc(F)cc3)c2)o1` [Compound 46], the “Em effect: ratio of the compound effect” value was “++ (>1-1.5 = ++)”.
`Clc1cccc(CNc2cccc(NCc3ccccc3Cl)c2)c1` [Compound 47] was tested, and the “Em effect: ratio of the compound effect” value was “++ (>1-1.5 = ++)”.
`Fc1cccc(CNc2cccc(NCc3ccccc3Cl)c2)c1` [Compound 48] was tested, and the “Em effect: ratio of the compound effect” value was “+ (0-1 = +)”.
For `Fc1cccc(F)c1CNc1cccc(NCc2csc3ccc(Cl)cc23)c1` [Compound 49, N-(5-chlorobenzo[b]thiophen-3-ylmetbyl)-N′-(2,6-difluorobenzyl)-benzene-1,3-diamine], the “Em effect: ratio of the compound effect” value was “+ (0-1 = +)”.
With `CS(=O)(=O)c1ccc(CNc2cccc(NCc3c(F)cccc3F)c2)cc1` [Compound 50, N-(2,6-difluorobenzyl)-N′-(4-methanesulfonylbenzyl)-benzene-1,3-diamine] the “Em effect: ratio of the compound effect” value was “+ (0-1 = +)”.
`CS(=O)(=O)c1ccc(CNc2cccc(NCc3cc(F)cc(F)c3)c2)cc1` [Compound 51, N-(3,5-difluorobenzyl)-N′-(4-methanlesulfonylbenzyl)-benzene-1,3-diamine] was tested, and the “Em effect: ratio of the compound effect” value was “+ (0-1 = +)”.
In the case of `Fc1ccc(CNc2cccc(NCc3ccc(-c4csnn4)cc3)c2)c(F)c1` [Compound 52, N-(2,4-difluorobenzyl)-N′-(4-[1,2,3]thiadiazol-4-yl-benzyl)-benzene-1,3-diamine], the “Em effect: ratio of the compound effect” value was “+ (0-1 = +)”.
For `Fc1cc(F)cc(CNc2cccc(NCc3ccc(-c4csnn4)cc3)c2)c1` [Compound 53, N-(3,5-difluorobenzyl)-N′-(4-[1,2,3]thiadiazol-4-yl-benzyl)-benzene-1,3-diamine], the “Em effect: ratio of the compound effect” value was “+ (0-1 = +)”.
`O=[N+]([O-])c1ccc(CNc2cccc(NCc3ccc(F)cc3F)c2)o1` [Compound 54, N-(2,4-difluorobenzyl)-N′-(5-nitrofuran-2-ylmethyl)-benzene1,3-diamine] was tested, and the “Em effect: ratio of the compound effect” value was “+ (0-1 = +)”.
For `Fc1ccc(CNc2cccc(NCc3cccc(Cl)c3)c2)c(F)c1` [Compound 55, N-(3-chlorobenzyl)-N′-(2,4-difluorobenzyl)-benzene-1,3-diamine], the “Em effect: ratio of the compound effect” value was “+ (0-1 = +)”.
`COc1cccc(CNc2cccc(NCc3csc4ccc(Cl)cc34)c2)c1` [Compound 56, N-(5-chlorobenzo[b]thiophen-3-ylmethyl)-N′-(3-methoxybenzyl)-benzene-1,3diamine] was tested, and the “Em effect: ratio of the compound effect” value was “+ (0-1 = +)”.
In the case of `Fc1cccc(F)c1CNc1cccc(NCc2cccc(Cl)c2)c1` [Compound 57, N-(3-chlorobenzyl)-N′-(2,6-difluorobenzyl)-benzene-1,3-diamine], the “Em effect: ratio of the compound effect” value was “+ (0-1 = +)”.
For `COc1cccc(CNc2cccc(NCc3cccc(Cl)c3)c2)c1` [Compound 58, N-(3-chlorobenzyl)-N′-(3-methoxybenzyl)-benzene-1,3-diamine], the “Em effect: ratio of the compound effect” value was “+ (0-1 = +)”.
In the case of `COc1cccc(CNc2cccc(NCc3ccc(-c4csnn4)cc3)c2)c1` [Compound 59, N-(3-methoxybenzyl)-N′-(4-[1,2,3]thiadiazol-4-yl-benzyl)-benzene-1,3-diamine], the “Em effect: ratio of the compound effect” value was “+ (0-1 = +)”.
`Fc1cccc(CNc2cccc(NCc3csc4ccc(Cl)cc34)c2)c1` [Compound 60] was tested, and the “Em effect: ratio of the compound effect” value was “+ (0-1 = +)”.
For `FC(F)(F)c1ccccc1CNc1cccc(NCc2ccc(-c3csnn3)cc2)c1` [Compound 61, N-(4-[1,2,3]thiadiazol-4-yl-benzyl)-N′-(2-tri-fluoromethylbenzyl)-benzene-1,3-diamine], the “Em effect: ratio of the compound effect” value was “+ (0-1 = +)”.
In the case of `FC(F)(F)c1ccccc1CNc1cccc(NCc2csc3ccc(Cl)cc23)c1` [Compound 62], the “Em effect: ratio of the compound effect” value was “+ (0-1 = +)”.
For `CS(=O)(=O)c1ccc(CNc2cccc(NCc3ccccc3C(F)(F)F)c2)cc1` [Compound 63, N-(4-methanesulfonylbenzyl)-N′-(2-tri-fluoromethylbenzyl)-benzene-1,3-diamine], the “Em effect: ratio of the compound effect” value was “+ (0-1 = +)”.
In the case of `Fc1ccc(CNc2cccc(NCc3csc4ccc(Cl)cc34)c2)c(Cl)c1` [Compound 64, N-(5-chlorobenzo[b]thiophen-3-ylmethyl)-N′-(2-chloro-4-fluorobenzyl)-benzene-1,3-diamine], the “Em effect: ratio of the compound effect” value was “+ (0-1 = +)”.
For `CS(=O)(=O)c1ccc(CNc2cccc(NCc3ccc(F)cc3Cl)c2)cc1` [Compound 65, N-(2-chloro-4-fluorobenzyl)-N′-(4-methanesulfonylbenzyl)-benzene-1,3-diamine], the “Em effect: ratio of the compound effect” value was “+ (0-1 = +)”.
With `Fc1ccc(CNc2cccc(NCc3cccc(Cl)c3)c2)c(Cl)c1` [Compound 66] the “Em effect: ratio of the compound effect” value was “+ (0-1 = +)”.
With `COc1cccc(CNc2cccc(NCc3ccc(F)cc3Cl)c2)c1` [Compound 67] the “Em effect: ratio of the compound effect” value was “+ (0-1 = +)”.
`N#Cc1cccc(CNc2cccc(NCc3ccc(C(F)(F)F)cc3)c2)c1` [Compound 68] was tested, and the “Em effect: ratio of the compound effect” value was “+ (0-1 = +)”.
`Fc1ccc(CNc2cc(NCc3ccc(F)cc3F)cc(C(F)(F)F)c2)c(F)c1` [Compound 69] was tested, and the “Em effect: ratio of the compound effect” value was “+ (0-1 = +)”.
In the case of `FC(F)(F)c1ccc(CNc2cc(NCc3ccc(C(F)(F)F)cc3)cc(C(F)(F)F)c2)cc1` [Compound 70, 5-trifloromethyl-N,N′-bis-(4-trifluoromethylbenzyl)-benzene-1,3-diamine], the “Em effect: ratio of the compound effect” value was “+ (0-1 = +)”.

Reference: patent publication US20040009973A1, “Novel potassium channels modulators” (4SC AG, priority 2002, published 2004)
